Holding throughout (assay): NCI anticancer screen, dose series, 48 h
Assay [1] relates to DU-145.
Assay [2] deals with HCT-116.
Assay [3] relates to HOP-62.
In assay [4] the test system is HT-29.
The test system of assay [5] is Hs-578T.
Assay [6] has as its system K562.
Assay [7] has as its system KM12.
For assay [8], the system named is LOX IMVI.
Assay [9] has as its system M14.
Assay [10] deals with MDA-MB-231.
The test system of assay [11] is NCI-H226.
Assay [12] concerns OVCAR-4.
Assay [13] relates to OVCAR-8.
Assay [14] concerns SF-295.
The test system of assay [15] is SK-MEL-28.
Assay [16] concerns SK-OV-3.
For assay [17], the system named is SN12C.
Assay [18] deals with T47D.
Assay [19] deals with TK-10.
The subject of assay [20] is UACC-257.

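Values below derive from 48-hour exposures of cells grown in 96-well plates, with endpoints linearly interpolated between the two concentrations bracketing the appropriate inhibition level. The concentration for 50% growth inhibition is given as GI50.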 Active and inactive are the calls of the source. Rule as the data show it: active = GI50 up to about 1.1 µM and inactive = higher. Some results are limits rather than exact numbers.

For the compound `CC1=C(C(=O)OCCO[N+](=O)[O-])C(c2ccccc2[N+](=O)[O-])C(C(=O)OC(C)C)=C(C)N1` (stereo not given), the GI50 in assay [1] was 20.7 µM (inactive); in assay [2], 15.4 µM (inactive); in [3], 18.2 µM (inactive); in assay [4] it was 15.7 µM (inactive); in [5] it was 14.8 µM (inactive); in [6], 49.1 µM (inactive). Moreover, the GI50 in [7] was 13.8 µM (inactive); in [8], 17.7 µM (inactive); in [9], 15.8 µM (inactive); in assay [10], 15.6 µM (inactive); in assay [11], 14 µM (inactive); in [12] it was 18 µM (inactive). Further, the GI50 in assay [13] is 22.5 µM (inactive); in [14], 15.7 µM (inactive); in [15], 16.5 µM (inactive); in assay [16], 21.2 µM (inactive); in assay [17], 17.6 µM (inactive); in [18], 13 µM (inactive). Further, the GI50 in assay [19] is 21.8 µM (inactive); in assay [20], 15.3 µM (inactive).
As for `COC1(c2cccs2)c2ccccc2C(OC)(c2cccs2)c2ccccc21` (stereo not given), the GI50 is 71 µM (inactive) in assay [1]; 17.4 µM (inactive) in assay [2]; 42.3 µM (inactive) in assay [3]; 50.8 µM (inactive) in assay [4]; 0.518 µM (active) in assay [5]; 36 µM (inactive) in [6]. Moreover, the GI50 was > 100 µM (inactive) in [7]; > 100 µM (inactive) in [8]; 81.1 µM (inactive) in assay [9]; 26.4 µM (inactive) in [10]; > 100 µM (inactive) in assay [11]; 33.7 µM (inactive) in assay [12]. Also, the GI50 in assay [13] is > 100 µM (inactive); in assay [14] it was 28.3 µM (inactive); in assay [15], > 100 µM (inactive); in assay [16], 86.1 µM (inactive); in assay [17], > 100 µM (inactive); in [18] it was 85.7 µM (inactive). Besides, the GI50 is 36.8 µM (inactive) in [19] and > 100 µM (inactive) in assay [20].
As for `COc1cc(/C=C2/CCS(=O)(=O)c3ccc(C)cc3C2=O)cc(OC)c1OC`, the GI50 was 3.48 µM (inactive) in [1]; 2.95 µM (inactive) in assay [2]; 6.04 µM (inactive) in assay [3]; 3.92 µM (inactive) in [4]; 4.73 µM (inactive) in assay [5]; 2.06 µM (inactive) in [6]. The GI50 is 4.54 µM (inactive) in [7]; 2.61 µM (inactive) in assay [8]; 5.33 µM (inactive) in assay [9]; 3.58 µM (inactive) in assay [10]; 6.34 µM (inactive) in assay [11]; 9.38 µM (inactive) in [12]. Also, the GI50 in assay [13] is 2.7 µM (inactive); in assay [14], 14.1 µM (inactive); in assay [15], 3.59 µM (inactive); in assay [16] it was 7.35 µM (inactive); in [17] it was 3.66 µM (inactive); in [18], 3.6 µM (inactive). Moreover, the GI50 in assay [19] was 5.37 µM (inactive); in assay [20], 4.15 µM (inactive).
Take `Cn1c2ccccc2c2ccc3c(c21)C(=O)C=CC3=O`: the GI50 in [1] was 16 µM (inactive); in assay [2] it was 4.29 µM (inactive); in assay [3], 28 µM (inactive); in [4], 10.5 µM (inactive); in [5], 18.4 µM (inactive); in assay [6] it was 1.75 µM (inactive). The GI50 in [7] was 22.9 µM (inactive); in [8], 4.18 µM (inactive); in [9], 8.65 µM (inactive); in assay [10], 6.73 µM (inactive); in [11] it was 20.5 µM (inactive); in assay [12], 1.82 µM (inactive). Further, the GI50 in assay [13] is 7.03 µM (inactive); in [14], 24.7 µM (inactive); in [15], 11.1 µM (inactive); in assay [16] it was 17.1 µM (inactive); in [17], 9.93 µM (inactive); in [18], 3.27 µM (inactive). Besides, the figures for the GI50 in [19] and in [20] were 3.88 µM (inactive) and 9.48 µM (inactive), respectively.

The record behind these values is ChEMBL document CHEMBL1201862, “PubChem BioAssay data set” (2004).
